Test results taken from patent publication US4243668A, “Octahydro-1H-benzo[4,5]furo[3,2-e]-isoquinoline analgesic and narcotic antagonistic compounds” (priority 1979, dated 1981).
Read-outs that look alike come from different tables or passages of the source.

Columns and labels:
[1] = tested on: pain induced by phenylquinone; experiment: phenylquinone writhing test (oral anti-PQW), analgesic activity; type: in vivo, female white mice; conditions: Mus musculus, po, mice, oral, phenylquinone writhing, ED50; read-out: EFFECT ED50 Oral Anti-PQW
Experimental: A standard procedure for detecting and comparing the analgesic activity of compounds in this series for which there is good correlation with human efficacy is the standard phenylquinone writhing test modified from Siegmund, et al., Proc. Soc. Exp. Biol. Med., 95, 729 (1957). A test compound suspended in 1% methocel® was given orally to fasted (17-21 hours) female white mice, 5-20 animals per double blind test. Aqueous (0.01% phenyl-p-benzoquinone) phenylquinone was injected intraperitoneally at 24 minutes later using 0.20 ml per mouse. […] The effective analgesic dose for 50% of the mice (ED50) was calculated by the moving average method of Thompson, W. R., Bact. Rev., 11, 115-145 (1947).

[2] = tested on: induction of Straub tail in mice by a highly addicting agonist such as morphine; experiment: anti-Straub tail test, antagonism of morphine-induced Straub tail (narcotic antagonism); type: in vivo, Female CF1 S mice; conditions: mice, vs morphine sulfate 30 mg/kg i.p.; for ED50: Mus musculus
Straub tail = Straub tail reaction (oral), narcotic agonist effect; type: in vivo, CF1 S female mice; conditions: Mus musculus, mice
Experimental: Narcotic analgesics produce in mice an erection and arching of the tail (90° or more) which is referable to spinal cord stimulation. This Straub tail reaction is not produced by other analgesics, including the narcotic antagonists.
The method used was modified from Shemano, I., and Wendel, H., Tox. Appl. Pharm., 6, 334-9 (1964). CF1 S female mice (18-21 g), 10-20 mice per dose, were intubated with log scaled doses of analgesic in 1% aqueous methylcellulose. A positive Straub tail response was recorded if a tail was erected 90° or more for 5 seconds at any time within 24 minutes after dosing. A quantal Straub tail ED50 was calculated by the moving average method [Thompson, W. R., Bact. Rev., 11, 115-145 (1947)].

[3] = sc, s.c., read-out: EFFECT ED50 subcutaneous(s.c.) Anti-Straub Tail
[4] = ip, i.p., read-out: EFFECT ED50 Intraperitoneal(i.p.) Anti-Straub Tail

## COc1cccc2c1OC1CCCC3CN(Cc4ccco4)CCC231 (stereo not drawn) [Example 37]
[1]
  ED50: 84 mg/kg
[2]; [3]
  ED50: 12 mg/kg
Straub tail
  ED50: > 135 mg/kg

## CC(C)CN1CCC23c4cccc(O)c4OC2CCCC3C1 (stereo not drawn) [Example 32]
[1]
  ED50: 63 mg/kg
[2]; [3]
  ED50: 0.03 mg/kg
Straub tail
  ED50: > 135 mg/kg

## CN1CC[C@]23c4ccccc4O[C@H]2CCC[C@H]3C1 (relative stereo) [Example 1, 3-Methyl-2,3,4,4aα,5,6,7,7aα,octahydro-1H-benzo[4,5]furo[3,2-e]isoquinoline]
[1]
  ED50: 14 mg/kg
Straub tail
  ED50: > 81 mg/kg

## Oc1cccc2c1OC1CCCC3CN(CC4CCCCC4)CCC231 (stereo not drawn) [Example 34]
[1]
  ED50: 23 mg/kg
[2]; [3]
  ED50: > 27 mg/kg
Straub tail
  ED50: > 135 mg/kg

## Oc1cccc2c1O[C@H]1CCC[C@H]3CNCC[C@@]231 (relative stereo) [Example 13, 2,3,4,4aα,5,6,7,7aα-octahydro-1H-benzo[4,5]furo[3,2-e]isoquinol in-9-ol]
[1]
  ED50: 15 mg/kg
[2]; [3]
  ED50: > 27 mg/kg
Straub tail
  ED50: > 135 mg/kg

## COc1cccc2c1OC1CCCC3CN(CC(C)C)CCC231 (stereo not drawn) [Example 31]
[1]
  ED50: 94 mg/kg
[2]; [3]
  ED50: 0.24 mg/kg
Straub tail
  ED50: > 135 mg/kg

## CC(C)CCN1CC[C@]23c4cccc(O)c4O[C@H]2CCC[C@H]3C1 (relative stereo) [Example 19, 3-(3'-Methylbutyl)-2,3,4,4aα,5,6,7,7aα-octahydro-1H-benzo[4,5]furo[3,2-e]isoquinolin-9-ol]
[1]
  ED50: 33 mg/kg
[2]; [3]
  ED50: 0.64 mg/kg
Straub tail
  ED50: > 135 mg/kg

## CN1CC[C@]23c4cccc(O)c4O[C@H]2CCC[C@H]3C1 (relative stereo) [Example 3, 3-Methyl-2,3,4,4aα,5,6,7,7aα-octahydro-1H-benzo[4,5]furo[3,2-e]isoquinolin-9-ol]
[1]
  ED50: 3.5 mg/kg
[2]; [3]
  ED50: 0.27 mg/kg
Straub tail
  ED50: > 135 mg/kg

## CC(C)=CCN1CC[C@]23c4cccc(O)c4O[C@H]2CCC[C@H]3C1 (relative stereo) [Example 18, 3-(3'-methyl-2'-butenyl)-2,3,4,4aα,5,6,7,7aα-octahydro-1H-benzo[4,5]furo[3,2-e]isoquinolin-9-ol]
[1]
  ED50: 10.8 mg/kg
[2]; [3]
  ED50: > 27 mg/kg
Straub tail
  ED50: 32 mg/kg

## Oc1cccc2c1OC1CCCC3CN(CC4CCCO4)CCC231 (stereo not drawn) [Example 40]
[1]
  ED50: 11.8 mg/kg
[2]; [3]
  ED50: 0.19 mg/kg

## CCCN1CC[C@]23c4cccc(OC)c4O[C@H]2CCC[C@H]3C1 (relative stereo) [Example 21]
[1]
  ED50: 78 mg/kg
[2]; [3]
  ED50: 0.08 mg/kg
Straub tail
  ED50: > 135 mg/kg

## COc1cccc2c1OC1CCCC3CN(Cc4cccs4)CCC231 (stereo not drawn) [Example 41]
[1]
  ED50: 48 mg/kg
[2]; [3]
  ED50: > 27 mg/kg
Straub tail
  ED50: > 135 mg/kg

## CCN1CC[C@]23c4cccc(O)c4O[C@H]2CCC[C@H]3C1 (relative stereo) [Example 14b, 3-Ethyl-2,3,4,4aα,5,6,7,7aα-octahydro-1H-benzo[4,5]furo[3,2-e]isoquinolin-9-ol]
[1]
  ED50: 135 mg/kg
[2]; [3]
  ED50: 0.028 mg/kg
Straub tail
  ED50: > 135 mg/kg

## CCCCN1CCC23c4cccc(O)c4OC2CCCC3C1 (stereo not drawn) [Example 24]
[1]
  ED50: 23 mg/kg
[2]; [3]
  ED50: 0.032 mg/kg
Straub tail
  ED50: > 135 mg/kg

## CC(C)=CCN1CCC2(C)c3cc(O)ccc3CC1C2C (stereo not drawn) [Pentazocine, reference compound]
[1]
  ED50: 56 mg/kg
[2]; [3]
  ED50: 4 mg/kg
Straub tail
  ED50: > 135 mg/kg

## Oc1cccc2c1O[C@H]1CCC[C@H]3CN(CC4CCC4)CC[C@@]231 (relative stereo) [Example 7, 3-Cyclobutylmethyl-2,3,4,4aα,5,6,7,7aα-octahydro-1H-benzo[4,5]furo[3,2-e]isoquinoline-9-ol]
[1]
  ED50: 81 mg/kg
[2]; [4]
  ED50: 0.64 mg/kg
Straub tail
  ED50: > 81 mg/kg

## CCN1CC[C@]23c4cccc(OC)c4O[C@H]2CCC[C@H]3C1 (relative stereo) [Example 14a, 3-ethyl-9-methoxy-2,3,4,4aα,5,6,7,7aα-octahydro-1H-benzo[4,5]furo[3,2-e] isoquinoline]
[1]
  ED50: 63 mg/kg
[2]; [3]
  ED50: 0.71 mg/kg
Straub tail
  ED50: > 135 mg/kg

## Oc1cccc2c1OC1CCCC3CN(Cc4ccco4)CCC231 (stereo not drawn) [Example 38]
[1]
  ED50: 108 mg/kg
[2]; [3]
  ED50: 7.2 mg/kg
Straub tail
  ED50: > 135 mg/kg

## COc1cccc2c1O[C@H]1CCC[C@H]3CN(CC4CC4)CC[C@@]231 (relative stereo) [Example 4, 3-Cyclopropylmethyl-9-methoxy-2,3,4,4aα,5,6,7,7aα-octahydro-1H-benzo[4,5]furo[3,2-e]isoquinoline]
[1]
  ED50: 19.7 mg/kg
[2]; [4]
  ED50: 0.31 mg/kg
Straub tail
  ED50: > 135 mg/kg

## CN1CCC23c4cccc(O)c4OC2CCCC3C1 (single isomer, unassigned; isomer 3) [Example 3 (-)isomer, 3-Methyl-2,3,4,4aα,5,6,7,7aα-octahydro-1H-benzo[4,5]furo[3,2-e]isoquinolin-9-ol]
[2]; s.c., listed as 3 (-)isomer
  EFFECT ED50 subcutaneous(s.c.) Anti-Straub Tail: 0.14
Straub tail
  ED50: > 135 mg/kg

## C=CCN1CC[C@]23c4cccc(O)c4O[C@H]2CCC[C@H]3C1 (relative stereo) [Example 16, 3-Allyl-2,3,4,4aα,5,6,7,7aα-octahydro-1H-benzo[4,5]furo[3,2-e]isoquinolin-9-ol]
[1]
  ED50: 81 mg/kg
[2]; [3]
  ED50: 0.03 mg/kg
Straub tail
  ED50: > 81 mg/kg

## CC(=O)Oc1cccc2c1O[C@H]1CCC[C@H]3CN(CC4CC4)CC[C@@]231 (relative stereo) [Example 9, 3-Cyclopropylmethyl-9-acetoxy-2,3,4,4aα,5,6,7,7aα-octahydro-1H-benzo[4,5]furo[3,2-e]isoquinoline]
[1]
  ED50: 0.75 mg/kg
[2]; [3]
  ED50: 0.005 mg/kg
Straub tail
  ED50: > 135 mg/kg

## Cc1ccc(CCN2CCC34c5cccc(O)c5OC3CCCC4C2)cc1 (stereo not drawn) [Example 36]
[1]
  ED50: 0.67 mg/kg
[2]; [3]
  ED50: > 81 mg/kg
Straub tail
  ED50: 39 mg/kg

## COc1cccc2c1OC1CCCC3CN(CCc4ccc(C)cc4)CCC231 (stereo not drawn) [Example 35]
[1]
  ED50: 1.7 mg/kg
[2]; [3]
  ED50: 56 mg/kg
Straub tail
  ED50: 52 mg/kg

## CCCCCCN1CCC23c4cccc(O)c4OC2CCCC3C1 (stereo not drawn) [Example 28]
[1]
  ED50: 2.9 mg/kg
Straub tail
  ED50: 26 mg/kg

## CCCN1CC[C@]23c4cccc(O)c4O[C@H]2CCC[C@H]3C1 (relative stereo) [Example 22]
[1]
  ED50: 112 mg/kg
[2]; [3]
  ED50: 0.008 mg/kg
Straub tail
  ED50: > 135 mg/kg

## CN1CCC23c4cccc(O)c4OC2CCCC3C1 (single isomer, unassigned; isomer 3) [Example 3 (+)isomer, 3-Methyl-2,3,4,4aα,5,6,7,7aα-octahydro-1H-benzo[4,5]furo[3,2-e]isoquinolin-9-ol]
[2]; s.c., listed as 3 (+)isomer
  EFFECT ED50 subcutaneous(s.c.) Anti-Straub Tail: 3.3

## CCCCCCN1CCC23c4cccc(OC)c4OC2CCCC3C1 (stereo not drawn) [Example 27]
[1]
  ED50: 7 mg/kg
[2]; [3]
  ED50: > 27 mg/kg
Straub tail
  ED50: 25 mg/kg

## CCCCN1CC[C@]23c4cccc(OC)c4O[C@H]2CCC[C@H]3C1 (relative stereo) [Example 23]
[1]
  ED50: 33 mg/kg
[2]; [3]
  ED50: 0.82 mg/kg
Straub tail
  ED50: > 135 mg/kg

## CCCCCN1CCC23c4cccc(OC)c4OC2CCCC3C1 (stereo not drawn) [Example 25]
[1]
  ED50: 6.2 mg/kg
[2]; [3]
  ED50: > 27 mg/kg
Straub tail
  ED50: 57 mg/kg

## COc1cccc2c1OC1CCCC3CN(CC4CCCCC4)CCC231 (stereo not drawn) [Example 33]
[1]
  ED50: 135 mg/kg
Straub tail
  ED50: > 135 mg/kg

## Oc1cccc2c1O[C@H]1CCC[C@H]3CN(Cc4ccccc4)CC[C@@]231 (relative stereo) [Example 11, 3-Benzyl-2,3,4,4aα,5,6,7,7aα-octahydro-1H-benzo[4,5]furo[3,2-e]isoquinoline-9-ol]
[1]
  ED50: 29 mg/kg
[2]; [3]
  ED50: 1.2 mg/kg
Straub tail
  ED50: > 81 mg/kg

## COc1cccc2c1O[C@H]1CCC[C@H]3CN(CC#N)CC[C@@]231 (relative stereo) [Example 20, 9-Methoxy-2,3,4,4aα,5,6,7,7aα-octahydro-1H-benzo[4,5]furo[3,2-e]isoquinoline-3-acetonitrile]
[1]
  ED50: 26 mg/kg
[2]; [3]
  ED50: > 27 mg/kg
Straub tail
  ED50: > 135 mg/kg

## COc1cccc2c1O[C@H]1CCC[C@H]3CNCC[C@@]231 (relative stereo) [Example 12, 9-Methoxy-2,3,4,4aα,5,6,7,7aα-octahydro-1H-benzo[4,5]furo[3,2-e]isoquinoline]
[1]
  ED50: 47 mg/kg
Straub tail
  ED50: > 81 mg/kg

## CCCCCCCCN1CCC23c4cccc(O)c4OC2CCCC3C1 (stereo not drawn) [Example 30]
[1]
  ED50: 4.2 mg/kg
Straub tail
  ED50: 54 mg/kg

## C=CCN1CC[C@]23c4cccc(OC)c4O[C@H]2CCC[C@H]3C1 (relative stereo) [Example 15, 3-Allyl-9-methoxy-2,3,4,4aα,5,6,7,7aα-octahydro-1H-benzo[4,5]furo[3,2-e]isoquinoline]
[1]
  ED50: 62 mg/kg
[2]; [3]
  ED50: 0.3 mg/kg
Straub tail
  ED50: > 135 mg/kg

## COc1cccc2c1OC1CCCC3CN(CC4CCCO4)CCC231 (stereo not drawn) [Example 39]
[1]
  ED50: 16.7 mg/kg
[2]; [3]
  ED50: 4.7 mg/kg

## CCCCCCCCN1CCC23c4cccc(OC)c4OC2CCCC3C1 (stereo not drawn) [Example 29]
[1]
  ED50: 7.2 mg/kg
[2]; [3]
  ED50: > 27 mg/kg

## Oc1cccc2c1OC1CCCC3CN(Cc4cccs4)CCC231 (stereo not drawn) [Example 42]
[1]
  ED50: 108 mg/kg
Straub tail
  ED50: > 135 mg/kg
